Measurements from US11866466B2, “Tumor homing and cell penetrating peptide-immuno-oncology agent complexes and methods of use thereof” (BLAZE BIOSCIENCE, INC., priority 2017, dated 2024).
{ppp} = triphosphate on the strand's 5' end

What was measured:
STING = conditions: from Lioux et al.; cited from earlier work
[1] = tested on: IFN pathway (JAK/STAT/ISGF3 pathway and/or IRF3 pathway) in SEAP reporter cells; RIG-I; experiment: B16-Blue IFN-alpha/beta SEAP reporter cell assay; assay type: cell-based, murine; conditions: for luminescence signal (RLU) from activating the IFN pathway: 12 pmol or 120 pmol, 24, 48, or 72 hours, no transfection reagent (FIG. 19); for RLU signal in the presence of transfection reagent: with Lipofectamine transfection reagent (FIG. 22)
Mo7e cells = experiment: Mo7e proliferation assay (PrestoBlue); assay type: cell-based, human; conditions: 3 days incubation (FIG. 29)
Procedure: (§1) This example describes in vitro proliferation of cells treated with peptide-IL-15 agent complexes using cytokine dependent CTLL2 (mouse cytotoxic T lymphocyte cell line), Mo7e (human acute megakaryoblastic leukemia cell line) and human primary CD8+ T cells. All assays were performed in the 96 well plate format in clear bottom black walled tissue culture plates. Peptide-I/O complexes comprising SEQ ID NO: 568, peptide-I/O complexes comprising an IL-15 agent, and peptide-I/O complexes comprising a His-tagged RLI control proteins (SEQ ID NO: 1342) were diluted in culture media without cytokine supplement. […]
CTLL2 and Mo7e cells were maintained as cell cultures in media containing either IL-2 (CTLL2) or IL-3 (Mo7e). Viability and cell concentration were analyzed using a Viacell cell counter. […]
After the end of the incubation period, PrestoBlue live cell assay reagent (Invitrogen) was added to each well (10 μL per 100 μL well). […] Fluorescence was quantified using an Envision (Perkin Elmer 2104) plate reader. Data was graphed and analyzed in Excel, GraphPad Prism 7, or the AAT Bioquest graphing and EC50 calculator https://www.aatbio.com/tools/ec50-calculator. […]
After the end of the incubation period, PrestoBlue live cell assay reagent (Invitrogen) was added to each well per manufacture instructions. […] PrestoBlue fluorescence was quantified using an Envision (Perkin Elmer 2104) plate reader.

[2] = Tolerability of intraperitoneal peptide-IL-15 agent complexes in CT26 tumor mice; assay type: in vivo, mouse; conditions: 1-12 ug in 100 μl, 4 days a week intraperitoneally, 7 doses
Procedure: This example describes peptide-IL-15 agent complex accumulation in tumors. Peptide-IL-15 agent complexes such as this in example 18 were expressed and purified. Mice were dosed with 0.2 million CT26 cells, which were allowed to grow for 5 days, at which time tumors were palpable. Mice were dosed with 1-12 ug of SEQ ID NO: 1317, SEQ ID NO: 1321, an RLI, or no agent in 100 μl 4 days a week intraperitoneally. […] After 7 doses, the animals were sacrificed and the tumor tissue was harvested and fixed.

[3] = tested on: CD8+ primary human T cells; experiment: CD8+ primary human T cell proliferation assay (PrestoBlue); assay type: cell-based; conditions: FIG. 30A
Procedure: as §1
(§2) CD8+ selected primary human T-cells were received as frozen cells and stored in the LN2 vapor phase until used. […] 15 mL of room temperature 10% FBS RPMI media was added to the cell suspension; the cells were then pelleted, resuspended in 10% FBS media, and counted using the Viacell. […]
(§3) After the end of the incubation period, PrestoBlue live cell assay reagent (Invitrogen) was added to each well (10 μL per 100 μL well). […] Fluorescence was quantified using an Envision (Perkin Elmer 2104) plate reader. Data was graphed and analyzed in Excel, GraphPad Prism 7, or the AAT Bioquest graphing and EC50 calculator https://www.aatbio.com/tools/ec50-calculator.

[4] = tested on: PHA induced T cell blasts; experiment: PHA induced T cell blast proliferation assay (PrestoBlue); assay type: cell-based, human; conditions: FIG. 30B; same CD8+ T cell donor
Procedure: as §1, §2, §3

A20 lymphoma cells [5] = experiment: Intratumoral microinjection in A20 lymphoma tumors, CC3 immunostaining and radial plot analysis; assay type: in vivo, mouse; conditions: for CC3 staining (apoptosis) at injection site: 24 hours after administration, complex at 1 μg and 2 μg doses (FIG. 81)
A20 lymphoma cells [6] = experiment: Intratumoral microinjection in A20 tumors, IFNb mRNA in situ hybridization (RNAscope); assay type: in vivo, mouse; conditions: 4 hours after administration; complex at 1 ug or 2 ug (FIG. 84, FIG. 85)
[7] = tested on: CT26 colon carcinoma cells; experiment: Intratumoral microinjection in CT26 flank tumors, cleaved caspase 3 (CC3) immunostaining; assay type: in vivo, mouse

Compound: Nc1ncnc2c1ncn2C1OC2COP(=O)(O)OC3C(COP(=O)(O)OC2C1O)OC(n1cnc2c(=O)[nH]cnc21)C3O (stereo not shown) [Analog 9, 3′,3′c-AIMP]
- activity relative to 2′,3′-cGAMP (STING): equivalent in activity to 2′,3′-cGAMP

Compound: Nc1ncnc2c1ncn2C1OC2COP(=O)(S)OC3CC(n4cnc5c(=O)[nH]cnc54)OC3COP(=O)(S)OC2C1F (stereo not shown) [Analog 56, c-[2′FdAM(PS)-dIM(PS)]]
- activity relative to 2′,3′-cGAMP (STING): more potent than 2′,3′-cGAMP

Compound: 3′,2′c-AIMP [Analog 23]
- activity relative to 2′,3′-cGAMP (STING): equivalent in activity to 2′,3′-cGAMP

Compound: c-[2′FdAMP(S)-2′FdIMP(S)] [Analog 53]
- activity relative to 2′,3′-cGAMP (STING): more potent than 2′,3′-cGAMP

Compound: Nc1ncnc2c1ncn2C1OC2COP(=O)(O)O[C@@H]3C(COP(=O)(O)O[C@H]2[C@H]1F)OC(n1cnc2c(=O)[nH]cnc21)[C@@H]3F (stereo partly shown) [Analog 52, c-(2′FdAMP-2′FdIMP)]
- activity relative to 2′,3′-cGAMP (STING): more potent than 2′,3′-cGAMP

Compound: Nc1ncnc2c1ncn2C1C[C@@H]2OP(=O)(O)OCC3OC(n4cnc5c(=O)[nH]cnc54)[C@H](F)[C@@H]3OP(=O)(O)OCC2O1 (stereo partly shown) [Analog 55, c-(dAMP-2′FdIMP)]
- activity relative to 2′,3′-cGAMP (STING): equivalent in activity to 2′,3′-cGAMP

Compound: 5′ppp dsRNA: SEQ ID NO: 1424 (with triphosphate on the 5′ end) and SEQ ID NO: 1425 (no terminal phosphates) complexed together (chain 1 GCAUGCGACCUCUGUUUGA; chain 2 UCAAACAGAGGUCGCAUGC; chain 1: RNA, 5' {ppp}, backbone and methylation of C not given here; chain 2: RNA, backbone and methylation of C not given here)
- luminescence signal (RLU) from activating the IFN pathway [1]: Very little signal
- RLU signal in the presence of transfection reagent [1]: high signaling

Compound: dsRNA: SEQ ID NO: 1424 and SEQ ID NO: 1425 (no terminal phosphates on either strand) complexed together (chain 1 GCAUGCGACCUCUGUUUGA; chain 2 UCAAACAGAGGUCGCAUGC; RNA, backbone and methylation of C not given here; further chemistry not fully specified)
- luminescence signal (RLU) from activating the IFN pathway [1]: Very little signal
- RLU signal in the presence of transfection reagent [1]: much lower signaling

Compound: Nc1ncnc2c1ncn2C1OC2COP(=O)(O)OC3CC(n4cnc5c(=O)[nH]cnc54)OC3COP(=O)(O)OC2C1F (stereo not shown) [Analog 54, c-(2′FdAMP-dIMP)]
- activity relative to 2′,3′-cGAMP (STING): equivalent in activity to 2′,3′-cGAMP

Compound: SEQ ID NO: 1342: His-tagged RLI protein comprising SEQ ID NO: 1169, SEQ ID NO: 1176 (IL-15Ra sushi+) and SEQ ID NO: 1177 (IL-15)
- cytokine activity, proliferation (Mo7e cells): stimulate Mo7e cells
- tolerability of treatments [2]: well tolerated
- cytokine activity, proliferation [3]: stimulate human CD8+ T cells
- cytokine activity, proliferation [4]: stimulate human CD8+ T cells

Compound: Cc1ccc2c(=O)c3cccc(CC(=O)O)c3oc2c1C [DMXAA]
- CC3 staining (apoptosis) at injection site (A20 lymphoma cells [5]): do not show similarly strong induction of apoptosis

Compound: Nc1ncnc2c1ncn2C1OC2COP(=O)(O)O[C@@H]3C(COP(=O)(O)O[C@@H]1[C@@H]2O)OC(n1cnc2c(=O)[nH]cnc21)[C@@H]3O (stereo partly shown) [Analog 10, 2′,3′c-AIMP]
- activity relative to 2′,3′-cGAMP (STING): equivalent in activity to 2′,3′-cGAMP

Compound: 5′ppp hpRNA: I/O comprising a dsRNA SEQ ID NO: 1371 with a 5′ppp, which forms a hairpin structure (GCAUGCGACCUCUGUUUGAUCAAACAGAGGUCGCAUGC; RNA, 5' {ppp}, backbone and methylation of C not given here; hairpin RNA)
- IFNb mRNA staining at injection site (A20 lymphoma cells [6]): significant IFNb mRNA staining
- fraction of cells positive for CC3 staining versus distance from injection site (radial plot) (A20 lymphoma cells [5]; 24 hour timepoint, 7-8 tumors per test article, complex at 1 μg and 2 μg (FIG. 82)): very little increase in CC3 positive cells
- CC3 staining (apoptosis) at injection site (A20 lymphoma cells [5]): do not show similarly strong induction of apoptosis
- luminescence signal (RLUs) with transfection reagent ([1]; 16.2 pmole, 24 hours, with Lipofectamine (FIG. 80)): High signaling

Compound: cAIM(PS)2 [Analog 13]
- activity relative to 2′,3′-cGAMP (STING): more potent than 2′,3′-cGAMP

Compound: Nc1ncnc2c1ncn2C1C[C@@H]2OP(=O)(O)OCC3OC(n4cnc5c(=O)[nH]cnc54)C[C@@H]3OP(=O)(O)OCC2O1 (stereo partly shown) [Analog 51, c-(dAMP-dIMP)]
- activity relative to 2′,3′-cGAMP (STING): equivalent in activity to 2′,3′-cGAMP

Compound: CCN(CC)CCCC(C)Nc1ccnc2cc(Cl)ccc12 (stereo not shown) [chloroquine]
- CC3 staining (apoptosis) at injection site ([7]; 4 hours post-treatment (FIG. 16)): did not have a significant region of CC3 staining
- CC3 staining (apoptosis) at injection site ([7]; 24 h, other animals tested): One animal showed CC3 staining
